Measured values as given in ChEMBL document CHEMBL1128002, “Selective inhibitors of protein kinase C in a model of graft-vs-host disease” (Bioorg Med Chem Lett, 1994).

Legend:
Rattus norvegicus [1] = organism: Rattus norvegicus; assay: (§1) Inhibitory activity against graft vs host disease in rat.; type: functional
[2] = (§2) Inhibitory activity against protein kinase C from Jurkat cells.; type: cell-based
[3] = as §2; type: cell-based; parameters: concentration or dose not given beside the values; conditions: dose or concentration not given here
Rattus norvegicus [4] = organism: Rattus norvegicus; assay: as §1; type: functional, organism-based

## COc1cc(/C=C2\C(=O)ON=C2c2cccs2)cc(OC)c1O
Rattus norvegicus [1]
  Inhibition: 72%
[2]
  IC50: 11 µM

## Oc1onc(-c2cccs2)c1/C=C1/C=Nc2ccccc21
[3]
  inhibition: 48%

## Nc1ccc(C2=NOC(=O)/C2=C\c2cccs2)cc1
[3]
  inhibition: 0%

## CN(C)c1ccc(/C=C2\C(=O)ON=C2c2cccs2)cc1
Rattus norvegicus [1]
  Inhibition: 89%
[3]
  inhibition: 88%
Rattus norvegicus [4]
  IC50: 4.2 µM
[2]
  IC50: 2.1 µM

## O=C1ON=C(c2cccs2)/C1=C/c1cccc(O)c1
Rattus norvegicus [1]
  Inhibition: 58%
[2]
  IC50: 9.9 µM

## Cc1cc(/C=C2\C(=O)ON=C2c2cccs2)cc(C)c1O
Rattus norvegicus [4]
  IC50: 2.6 µM
[2]
  IC50: 2.5 µM

## O=C1ON=C(c2ccc([N+](=O)[O-])cc2)/C1=C/c1cccs1
[3]
  inhibition: 0%

## O=C1ON=C(c2cccs2)/C1=C/c1ccc(O)c(O)c1
Rattus norvegicus [1]
  Inhibition: 87%
Rattus norvegicus [4]
  IC50: 3.4 µM
[2]
  IC50: 3.5 µM

## O=C1ON=C(c2cccs2)/C1=C/c1ccc(O)cc1
Rattus norvegicus [1]
  Inhibition: 87%
[3]
  inhibition: 93%
Rattus norvegicus [4]
  IC50: 4.2 µM
[2]
  IC50: 3.5 µM

## O=C1ON=C(c2cccs2)/C1=C/c1ccccc1O
Rattus norvegicus [1]
  Inhibition: 87%
Rattus norvegicus [4]
  IC50: 5.7 µM
[2]
  IC50: 5.5 µM

## O=C1ON=C(c2cccs2)/C1=C/c1ccsc1
Rattus norvegicus [1]
  Inhibition: 95%
[3]
  inhibition: 100%
Rattus norvegicus [4]
  IC50: 3 µM
[2]
  IC50: 2.9 µM

## O=C1ON=C(c2cccs2)/C1=C/c1ccc(Cl)cc1
Rattus norvegicus [1]
  Inhibition: 71%
[3]
  inhibition: 82%
Rattus norvegicus [4]
  IC50: 6.2 µM
[2]
  IC50: 11 µM

## O=C1ON=C(c2cccs2)/C1=C/c1ccoc1
Rattus norvegicus [1]
  Inhibition: 94%
[3]
  inhibition: 100%
Rattus norvegicus [4]
  IC50: 3.6 µM
[2]
  IC50: 1.7 µM

## COc1ccc(/C=C2\C(=O)ON=C2c2cccs2)cc1
Rattus norvegicus [1]
  Inhibition: 96%
[3]
  inhibition: 89%
Rattus norvegicus [4]
  IC50: 2.5 µM
[2]
  IC50: 1.2 µM

## O=C1ON=C(c2cccs2)/C1=C/c1cccs1
Rattus norvegicus [1]
  Inhibition: 97%
[3]
  inhibition: 100%
Rattus norvegicus [4]
  IC50: 3.7 µM
[2]
  IC50: 1 µM

## O=C1ON=C(c2cccs2)/C1=C/c1cccc(Cl)c1
[3]
  inhibition: 24%
[2]
  IC50: 23 µM

## Cc1cc(O)cc(C)c1/C=C1\C(=O)ON=C1c1cccs1
Rattus norvegicus [1]
  Inhibition: 88%
[3]
  inhibition: 78%
Rattus norvegicus [4]
  IC50: 1.6 µM
[2]
  IC50: 5.3 µM

## COc1ccc(/C=C2\C(=O)ON=C2c2cccs2)c(OC)c1
[3]
  inhibition: 35%
[2]
  IC50: > 100 µM

## CC(=O)Oc1ccc(/C=C2\C(=O)ON=C2c2cccs2)cc1
Rattus norvegicus [1]
  Inhibition: 65%
[3]
  inhibition: 81%
Rattus norvegicus [4]
  IC50: 4.5 µM
[2]
  IC50: 11 µM

## O=C1ON=C(c2cccs2)/C1=C/c1ccc(F)cc1
Rattus norvegicus [1]
  Inhibition: 92%
[3]
  inhibition: 98%
Rattus norvegicus [4]
  IC50: 4.8 µM
[2]
  IC50: 8.8 µM

## CC(C)(C)c1cc(/C=C2\C(=O)ON=C2c2cccs2)cc(C(C)(C)C)c1O
[2]
  IC50: 35 µM

## CC1=CC(C)=N/C1=C/c1c(-c2cccs2)noc1O
[3]
  inhibition: 19%

## O=C1ON=C(c2ccccc2)/C1=C/c1ccco1
Rattus norvegicus [1]
  Inhibition: 89%
[3]
  inhibition: 84%
Rattus norvegicus [4]
  IC50: 2.9 µM
[2]
  IC50: 0.9 µM

## COc1ccccc1C1=NOC(=O)/C1=C\c1cccs1
Rattus norvegicus [1]
  Inhibition: 66%
[3]
  inhibition: 100%
Rattus norvegicus [4]
  IC50: 7.1 µM
[2]
  IC50: 1.2 µM

## Cn1cc(/C=C2\C(=O)ON=C2c2cccs2)c2ccccc21
[3]
  inhibition: 21%

## O=C1ON=C(c2ccccc2)/C1=C/c1ccccc1
[2]
  IC50: 14 µM

## O=C1ON=C(c2ccccc2O)/C1=C/c1cccs1
Rattus norvegicus [1]
  Inhibition: 20%
[2]
  IC50: 25 µM

## O=C1ON=C(c2cccs2)/C1=C/c1ccco1
Rattus norvegicus [1]
  Inhibition: 88%
[3]
  inhibition: 100%
Rattus norvegicus [4]
  IC50: 5.8 µM
[2]
  IC50: 1.4 µM

## O=C1ON=C(c2cccs2)/C1=C/c1ccccc1
Rattus norvegicus [1]
  Inhibition: 88%
[3]
  inhibition: 81%
Rattus norvegicus [4]
  IC50: 4.4 µM
[2]
  IC50: 15 µM

## COc1ccc(OC)c(C2=NOC(=O)/C2=C\c2cccs2)c1
Rattus norvegicus [1]
  Inhibition: 59%
[3]
  inhibition: 100%
Rattus norvegicus [4]
  IC50: 7.9 µM
[2]
  IC50: 1.9 µM

## Oc1onc(-c2cccs2)c1/C=C1\C=CC=N1
[3]
  inhibition: 8.9%

## O=C(O)COc1ccc(/C=C2\C(=O)ON=C2c2cccs2)cc1
Rattus norvegicus [1]
  Inhibition: -7%
Rattus norvegicus [4]
  IC50: 100 µM
[2]
  IC50: 8.2 µM

## O=C1ON=C(c2cccs2)C1=CC=Cc1ccccc1
Rattus norvegicus [1]
  Inhibition: 93%
Rattus norvegicus [4]
  IC50: 3 µM
[2]
  IC50: 1 µM

## COc1cc(/C=C2\C(=O)ON=C2c2cccs2)ccc1OC(C)=O
Rattus norvegicus [1]
  Inhibition: 43%
[3]
  inhibition: 82%
[2]
  IC50: 11 µM

## O=C1ON=C(c2cccs2)/C1=C/c1ccc(Br)cc1
Rattus norvegicus [1]
  Inhibition: 91%
[3]
  inhibition: 100%
[2]
  IC50: 84 µM

## COc1cccc(/C=C2\C(=O)ON=C2c2cccs2)c1
Rattus norvegicus [1]
  Inhibition: 66%
[3]
  inhibition: 65%
[2]
  IC50: 22 µM

## COc1ccc(C2=NOC(=O)/C2=C\c2cccs2)cc1
Rattus norvegicus [1]
  Inhibition: 44%
[3]
  inhibition: 100%
Rattus norvegicus [4]
  IC50: 11 µM
[2]
  IC50: 0.7 µM
